# Laboratory results from publication PMC6268275, “Use of Spectroscopic, Zeta Potential and Molecular Dynamic Techniques to Study the Interaction between Human Holo-Transferrin and Two Antagonist Drugs: Comparison of Binary and Ternary Systems” (Molecules, 2012).
# Structures can show the parent of a compound that is named as a salt.
# Target: T1, human holo-transferrin (hTf) (Homo sapiens, UniProt P02787)
# T1 construct: gene TF; commercial holo (iron-loaded) glycoprotein, Sigma-Aldrich; mature full length, 679 residues, ~79 kDa, N-lobe and C-lobe, no tag stated
# T1 sequence (P02787 20-698): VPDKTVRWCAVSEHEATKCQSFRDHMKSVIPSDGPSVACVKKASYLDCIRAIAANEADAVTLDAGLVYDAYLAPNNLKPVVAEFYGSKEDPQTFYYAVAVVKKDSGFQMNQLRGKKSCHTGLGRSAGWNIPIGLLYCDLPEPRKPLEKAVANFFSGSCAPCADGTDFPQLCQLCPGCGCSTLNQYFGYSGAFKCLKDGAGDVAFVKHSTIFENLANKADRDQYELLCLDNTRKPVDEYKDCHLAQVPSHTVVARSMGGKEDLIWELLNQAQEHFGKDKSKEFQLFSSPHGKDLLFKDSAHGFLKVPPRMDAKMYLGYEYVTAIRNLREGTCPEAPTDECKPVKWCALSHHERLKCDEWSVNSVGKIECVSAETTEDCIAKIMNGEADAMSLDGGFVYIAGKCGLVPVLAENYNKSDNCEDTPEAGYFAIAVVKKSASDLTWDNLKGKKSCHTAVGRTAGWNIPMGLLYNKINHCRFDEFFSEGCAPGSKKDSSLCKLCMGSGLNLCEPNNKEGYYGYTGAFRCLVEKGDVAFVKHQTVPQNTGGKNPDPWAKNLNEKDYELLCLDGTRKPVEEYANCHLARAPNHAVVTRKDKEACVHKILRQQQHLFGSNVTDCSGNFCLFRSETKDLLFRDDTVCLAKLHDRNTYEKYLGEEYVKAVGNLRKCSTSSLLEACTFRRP
# Assay: intrinsic fluorescence quenching titration
# Assay type: binding
# Conditions: double-log, excitation 280 nm, 50 mM potassium phosphate pH 7.4, 298 K
# Source text: intrinsic fluorescence quenching titration on human holo-transferrin (hTf)
SMILES,"K b ( L mol^-1) / λ ex = 280 nM (one site, binary system without ropinirole)","K b ( L mol^-1) / λ ex = 280 nM (stronger of two sites, binary system without aspirin)"
"CC(=O)Oc1ccccc1C(=O)O [aspirin, 2-acetoxy benzoic acid]",(7.83 ± 0.02) × 10^3 L mol^-1,–
"CCCN(CCC)CCc1cccc2c1CC(=O)N2 [ropinirole hydrochloride, 4-[2-(dipropylamino)ethyl]-1,3-dihydro-2H-indol-2-one monohydro-chloride]",–,(1.69 ± 0.03) × 10^6 L mol^-1
